# Source: US9339508B2, “Use of 3-methoxy-pregnenolone for the preparation of a drug for treating a traumatic brain injury” (MAPREG, priority 2003, dated 2016)
# Key:
# [1] = test system: Sprague Dawley rats; assay: Novel object recognition test, naive animals, 4 h ITI; assay type: in vivo, rat; details: 10 mg/kg subcutaneously immediately after T1
# Excerpt: Cognitive dysfunction, including impaired recognition memory, are common features in depressed patients (Egeland et al., Scand. J. Psychol. 2005). The present experiment explored the ability of 3-methoxy-PREG (43B) administration to increase recognition memory retention in naive animals and to recover recognition memory deficits in animals submitted to the social isolation protocol. Rearing rats in isolation from the time of weaning and throughout adulthood can induce a series of hippocampal structural and molecular deficits paralled by behavioural alterations resembling a depressive-like state (Weiss and Feldon, Psychopharmacology 2001; Bianchi et al., EJN 2006). Recognition memory was assessed using the NOR test which is a two-trial test of recognition memory based on the spontaneous preference of rats for novelty (Ennaceur and Delacour, Behav. Brain. Res. 1988; Bianchi et al. EJN. 2006). Briefly, rats are placed in the open field arena for a 3 min period of habituation and then re-placed in their “home” cage for 1 min. The animals are then re-placed in the arena for the familiarization trial (T1) and allowed to explore two identical objects for 5 min. […] The ability of the animals to discriminate between the novel and the familiar object is then expressed as D2-INDEX: [novel object (sec)−familiar object (sec)]/[novel object (sec)+familiar object (sec)] […]
# [2] = test system: Synaptophysin; assay: Western blot of synaptophysin in cortex and hippocampus after CCI; assay type: in vivo, rat; details: day 35, 20 mg/kg, first injection 2 h post-trauma, injured hippocampus
# Experimental: (§1) CCI was performed with an electromagnetic impact device as described (MyNeurolab, St. Louis, Mo.; Brody et al, 2007). Anesthesized rats were subjected to a single right lateral CCI, with the following parameters impact centered 4.0 mm anterior to lambda and 4.5 mm […] of midline, within the craniotomy of the animal. The impact was set at a velocity of 4 m/s with a sustained depression of 200 ms, using a 5.0 mm tip.
# (§2) Samples were analyzed by Western-blot at day 35 post-trauma (D35) to evaluate the effects of MAP4343 on: MAP2 (the target of MAP4343 and a modulator of microtubule function), the post-synaptic markers PSD95 and spinophilin, the pre-synaptic marker synaptophysin, and the axonal growth/integrity marker […].
# (§3) Western blot was performed on cortex and hippocampus of TBI-injured animals receiving the first injection of MAP4343 (at 10 mg/kg or 20 mg/kg) or vehicle (sesame oil) 2 h after injury.
# (§4) The expression level of various neuronal brain markers of plasticity was measured at day 35 post-trauma by western-blots in the cortex and hippocampus of left uninjured and right injured cerebral hemispheres of CCI traumatized animals receiving either vehicle (sesame oil, CCI-D0) or 3-methoxy-PREG (MAP4343) at 10 mg/kg (CCI-D1) or 20 mg/kg (CCI-D2), with first MAP4343 injection 2 h post-trauma.
# [3] = test system: spinophilin; assay: Western blot of spinophilin in cortex and hippocampus after CCI; assay type: in vivo, rat; details: day 35, 10 mg/kg or 20 mg/kg, first injection 2 h post-trauma, injured cortex and hippocampus and contralaterally
# Experimental: as §1, §2, §3, §4
# [4] = test system: GFAP; assay: GFAP immunohistochemistry after Lateral Fluid Percussion (LFP); assay type: in vivo, rat
# Excerpt: After anesthesia induction, the animal was placed on a stereotaxic frame. To expose the dura mater, craniotomy (diameter 5 mm) was under the left parietal cortex (−3.6 mm from Bregma, −3.0 mm from midline). A female Luer-Lock was placed over the craniotomy and was secured to the parietal bone with dental cement. The Luer-Lock was then filled with isotonic saline to create an interface with the dura meter.
# Trauma was induced by a fluid percussion device (Custom Design and Manufacturing, United. Kingdom) (Besson et al., 2003) it is a cylindrical tank (60 cm long), with a piston on one side, over which a hammer exercises a constraint, and a male Luer-Lock on the other side. […] The amplitude of each shock wave was measured via a pressure transducer connected to the terminal portion of the device. The pressure signal was recorded on an oscilloscope. […]
# After mounting on Superfrost slides, frozen sections were dried for 90 minutes at room temperature and stored at −80° C. until use. […] Immunostaining was quantitatively assessed by optical density measurements directly from the section image (Image J). […]
# GFAP expression was measured by immunohistochemistry at day 35 post-trauma in injured and uninjured cortex, thalamus and hippocampus of LFP traumatized, rats treated with vehicle (sesame oil), or 3-methoxy-PREG (MAP4343) at 10 mg/kg or 20 mg/kg, with first injection at 2 hours post-trauma.
# [5] = target: purified tubulin and MAP2 (Homo sapiens, UniProt P11137); assay: MAP2-induced polymerization of microtubules in vitro (optical density at 345 nm); assay type: biochemical
# Chain of purified tubulin and MAP2 (P11137 whole entry): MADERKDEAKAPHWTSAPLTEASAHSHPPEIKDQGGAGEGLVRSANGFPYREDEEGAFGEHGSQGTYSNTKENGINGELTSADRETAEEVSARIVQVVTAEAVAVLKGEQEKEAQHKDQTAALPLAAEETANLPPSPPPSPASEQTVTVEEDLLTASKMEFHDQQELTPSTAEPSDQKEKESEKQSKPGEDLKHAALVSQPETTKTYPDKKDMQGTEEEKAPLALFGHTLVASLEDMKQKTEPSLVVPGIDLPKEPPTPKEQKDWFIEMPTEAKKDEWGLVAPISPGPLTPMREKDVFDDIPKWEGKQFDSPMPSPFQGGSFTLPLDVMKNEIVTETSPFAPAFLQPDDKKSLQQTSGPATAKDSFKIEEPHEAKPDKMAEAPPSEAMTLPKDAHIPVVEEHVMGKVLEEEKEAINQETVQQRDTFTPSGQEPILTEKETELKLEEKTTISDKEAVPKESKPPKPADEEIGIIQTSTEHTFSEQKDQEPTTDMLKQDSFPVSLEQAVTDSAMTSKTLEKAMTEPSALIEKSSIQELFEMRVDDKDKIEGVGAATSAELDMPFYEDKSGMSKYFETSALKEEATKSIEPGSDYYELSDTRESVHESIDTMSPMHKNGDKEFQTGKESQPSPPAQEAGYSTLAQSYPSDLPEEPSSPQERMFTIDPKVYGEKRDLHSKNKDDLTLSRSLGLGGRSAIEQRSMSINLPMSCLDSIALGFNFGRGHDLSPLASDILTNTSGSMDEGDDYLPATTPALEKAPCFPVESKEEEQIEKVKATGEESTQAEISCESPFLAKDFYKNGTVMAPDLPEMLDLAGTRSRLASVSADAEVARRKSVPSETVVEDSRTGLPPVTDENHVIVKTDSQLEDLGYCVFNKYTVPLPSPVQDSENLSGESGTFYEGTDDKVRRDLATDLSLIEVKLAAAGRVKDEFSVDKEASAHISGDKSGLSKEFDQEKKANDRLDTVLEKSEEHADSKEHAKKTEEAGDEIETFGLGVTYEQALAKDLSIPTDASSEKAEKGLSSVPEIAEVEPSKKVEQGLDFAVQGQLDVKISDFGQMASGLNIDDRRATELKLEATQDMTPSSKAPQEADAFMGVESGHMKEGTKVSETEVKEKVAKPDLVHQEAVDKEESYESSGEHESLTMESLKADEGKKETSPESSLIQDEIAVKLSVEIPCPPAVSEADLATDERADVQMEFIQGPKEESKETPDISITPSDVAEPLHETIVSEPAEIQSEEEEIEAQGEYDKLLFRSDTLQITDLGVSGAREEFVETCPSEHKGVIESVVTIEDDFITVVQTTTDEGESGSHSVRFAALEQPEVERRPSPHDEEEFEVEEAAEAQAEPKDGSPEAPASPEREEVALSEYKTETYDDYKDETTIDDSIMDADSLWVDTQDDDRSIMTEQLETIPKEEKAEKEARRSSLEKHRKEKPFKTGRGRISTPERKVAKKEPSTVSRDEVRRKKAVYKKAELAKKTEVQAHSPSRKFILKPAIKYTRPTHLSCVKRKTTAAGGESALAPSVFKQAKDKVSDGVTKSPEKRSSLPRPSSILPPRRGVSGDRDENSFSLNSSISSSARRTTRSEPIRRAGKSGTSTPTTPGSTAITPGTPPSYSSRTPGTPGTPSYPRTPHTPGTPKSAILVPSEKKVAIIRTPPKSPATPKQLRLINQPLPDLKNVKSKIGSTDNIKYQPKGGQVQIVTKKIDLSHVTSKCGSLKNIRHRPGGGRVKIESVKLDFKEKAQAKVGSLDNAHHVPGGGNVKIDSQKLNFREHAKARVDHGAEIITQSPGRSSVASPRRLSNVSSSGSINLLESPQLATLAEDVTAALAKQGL
# Experimental: Purified MAP2 and tubulin are mixed in the presence of GTP at 4° C. in a spectrophotometer cuvette. Polymerization is induced by heating at 37° C. and is followed by the increase in optical density (OD) which indicates the quantity of polymers formed.
# This in vitro test measures the effect of molecules on the MAP2-induced polymerization of microtubules. This polymerization occurs when MAP2 proteins and tubulin are mixed at adequate concentrations in the presence of GTP. It is accompanied by an increase in optical density measured at 345 nm for 15 to 30 minutes with a UNICON spectrophotometer thermostated at 37° C. (FIG. 1).
# Activity is measured by the increase in optical density at 345 nm of a mixture of purified tubulin and MAP2, incubated at 37° C. in the presence of GTP.
# [6] = test system: MAP2; assay: Western blot of MAP2 in cortex and hippocampus after CCI; assay type: in vivo, rat; details: day 35, 20 mg/kg, first injection 2 h post-trauma, injured and non-injured cortex and hippocampus
# Experimental: as §1, §2, §3, §4
# [7] = test system: PC12 cell line; assay: Cellular toxicity on the PC12 cell line; assay type: cell-based, rat; details: concentrations as high as solubility limits
# Experimental: Cellular toxicity tests are carried out routinely on the PC12 cell line.
# [8] = 40 μM, compared to solvent alone
compound,measurement,setting,value
"CO[C@H]1CC[C@@]2(C)C(=CC[C@H]3[C@@H]4CC[C@H](C(C)=O)[C@@]4(C)CC[C@@H]32)C1 [3-methoxy-PREG, 3β-methoxy-pregna-5-ene-20-one]",discrimination between novel and familiar object,[1],discriminated between the novel and the familiar object showing increased memory retention
same,Synaptophysin expression,[2],increase in Synaptophysin expression in injured hippocampus
same,spinophilin expression,[3],increase in spinophilin expression
same,astrocytes GFAP immunoreactivity in the injured cortex,"[4]; day 35, 10 mg/kg or 20 mg/kg, first injection 2 hours post-trauma",highly decreased
same,astrocytes immunoreactivity in the injured thalamus,"[4]; day 35, especially Dose2 (20 mg/kg)",strongly decreases astrocytes immunoreactivity
same,microtubule polymerization,[5],activates microtubule polymerization
same,Lag time of microtubule polymerization,[5]; [8],decreased
same,polymerization rate and quantity of microtubules,[5]; [8],clearly increase
same,MAP2 expression,[6],strong increase of MAP-2
same,cellular toxicity,[7],do not demonstrate toxicity
